Experimental data: ChEMBL document CHEMBL2385025, “Detour of prenostodione synthesis towards pyrazolones for antibacterial activity” (2013)

Key:
Staphylococcus aureus [1] = test: Growth inhibition of Staphylococcus aureus ATCC 35556 at 50 uM relative to control; assay type: functional; details: read-out: GI
Staphylococcus aureus [2] = test: Growth inhibition of Staphylococcus aureus MRSA 1094 at 50 uM relative to control; details: read-out: GI
Staphylococcus aureus [3] = test: Inhibition of biofilm formation of methicillin-sensitive Staphylococcus aureus at 50 uM by crystal violet staining-based spectrophotometric analysis relative to control; assay type: functional
[4] = system: Staphylococcus epidermidis; test: Growth inhibition of Staphylococcus epidermidis 1457 at 50 uM relative to control; assay type: functional; details: read-out: GI
[5] = system: Staphylococcus epidermidis; test: Inhibition of biofilm formation of Staphylococcus epidermidis GTC 18972 at 50 uM by crystal violet staining-based spectrophotometric analysis relative to control; assay type: functional
Staphylococcus aureus [6] = test: Inhibition of biofilm formation of Staphylococcus aureus ATCC 35556 at 50 uM by crystal violet staining-based spectrophotometric analysis relative to control; assay type: functional
Pseudomonas aeruginosa [7] = test: Growth inhibition of Pseudomonas aeruginosa PAO1 at 50 uM relative to control; assay type: functional; details: read-out: GI
Staphylococcus aureus [8] = test: Inhibition of biofilm formation of Staphylococcus aureus MRSA 1094 at 50 uM by crystal violet staining-based spectrophotometric analysis relative to control
Staphylococcus aureus [9] = test: Growth inhibition of methicillin-sensitive Staphylococcus aureus at 50 uM relative to control; assay type: functional; details: read-out: GI
[10] = system: Staphylococcus epidermidis; test: Growth inhibition of Staphylococcus epidermidis GTC 18972 at 50 uM relative to control; assay type: functional; details: read-out: GI
[11] = system: Staphylococcus epidermidis; test: Inhibition of biofilm formation of Staphylococcus epidermidis 1457 at 50 uM by crystal violet staining-based spectrophotometric analysis relative to control; assay type: functional
Pseudomonas aeruginosa [12] = test: Inhibition of biofilm formation of Pseudomonas aeruginosa PAO1 at 50 uM by crystal violet staining-based spectrophotometric analysis relative to control; assay type: functional

Compound | inhibition of growth at 50 µM (Staphylococcus aureus [1]) [%] | inhibition of growth at 50 µM (Staphylococcus aureus [2]) [%] | inhibition at 50 µM (Staphylococcus aureus [3]) [%] | inhibition of growth at 50 µM [4] [%] | inhibition at 50 µM [5] [%] | inhibition at 50 µM (Staphylococcus aureus [6]) [%] | inhibition of growth at 50 µM (Pseudomonas aeruginosa [7]) [%] | inhibition at 50 µM (Staphylococcus aureus [8]) [%] | inhibition of growth at 50 µM (Staphylococcus aureus [9]) [%] | inhibition of growth at 50 µM [10] [%] | inhibition at 50 µM [11] [%] | inhibition at 50 µM (Pseudomonas aeruginosa [12]) [%]
COC(=O)CC1=NN(c2ccccc2)C(=O)/C1=C\c1ccc(O)cc1 | -7.76 | 7.95 | 9.96 | 15 | 2.6 | -0.723 | 14.1 | -7.01 | -5.33 | 30.2 | 3.69 | -5.96
COC(=O)CC1=NN(c2ccccc2)C(=O)/C1=C\c1cc(OC)c(OC)c(OC)c1 | -3.34 | 20.9 | 19.8 | 15.8 | 12.8 | 31.2 | -0.864 | 2.88 | 1.49 | 33.8 | 10.6 | 11
COC(=O)CC1=NN(c2ccccc2)C(=O)/C1=C\c1ccc(Cl)cc1 | 10.3 | 38 | 86.7 | 23.1 | 20.4 | 88.1 | -5.15 | 21.5 | 21.9 | 32.4 | 6.08 | 9.68
COC(=O)CC1=NN(c2ccccc2)C(=O)/C1=C\c1c[nH]c2ccccc12 | -19.7 | 0.914 | 8.02 | -7.59 | 54.5 | 62 | -10.8 | -126 | -19.4 | -2.37 | 47.7 | -38.5
COC(=O)CC1=NN(c2ccccc2)C(=O)/C1=C\c1ccco1 | -15.4 | 20.4 | -15.6 | 13.9 | 12.1 | 6.49 | -14.8 | -167 | -5.33 | 25.9 | 9.86 | 13.9
COC(=O)CC1=NN(c2ccccc2)C(=O)/C1=C\c1ccc(N(C)C)cc1 | -18.4 | 11.5 | -27.3 | 9.19 | 3.75 | 9.7 | 2.45 | 35.9 | -11.4 | 27.7 | 1.24 | -79.8
COC(=O)CC1=NN(c2ccccc2)C(=O)/C1=C\c1ccsc1 | -17.5 | 15 | -5.79 | 14.3 | 10.8 | 0.355 | 10.8 | -23.8 | -3.06 | 33.8 | 2.03 | -4.41
COC(=O)CC1=NN(c2ccccc2)C(=O)/C1=C\c1ccc(OC)cc1OC | -5.55 | -0.169 | -61.9 | -1.75 | -5.55 | 1.53 | -3.78 | 37.6 | -6.08 | 20.5 | -0.983 | -31.1
COC(=O)CC1=NN(c2ccccc2)C(=O)/C1=C\c1ccccc1Br | -6.96 | 53.5 | 46.5 | 32.4 | 82.6 | 65.8 | 9.21 | 87.9 | 8.69 | 55 | 50.8 | -22.9
CCOc1ccc(/C=C2\C(=O)N(c3ccccc3)N=C2CC(=O)OC)cc1OC | -2.46 | 2.81 | 57.8 | 4.08 | 15.6 | 34 | -1.25 | 15.2 | -0.402 | 22 | -1.83 | -5.61
